In patent publication US20240150294A1, “ESTROGEN RECEPTOR ALPHA ANTAGONISTS AND USES THEREOF” (The University of Chicago, priority 2021, published 2024):
pIC50: −log10 of the molar value.

target: T1, ERα (Homo sapiens, UniProt P03372); assay: Transcriptional reporter gene assay (estrogen response element-GFP) in MCF7 cells; type: cell-based; settings: ERE-controlled green fluorescent protein, reduction in fluorescence
T1 construct: endogenous in cells; host or cells: MCF7
T1 sequence (P03372 1-595): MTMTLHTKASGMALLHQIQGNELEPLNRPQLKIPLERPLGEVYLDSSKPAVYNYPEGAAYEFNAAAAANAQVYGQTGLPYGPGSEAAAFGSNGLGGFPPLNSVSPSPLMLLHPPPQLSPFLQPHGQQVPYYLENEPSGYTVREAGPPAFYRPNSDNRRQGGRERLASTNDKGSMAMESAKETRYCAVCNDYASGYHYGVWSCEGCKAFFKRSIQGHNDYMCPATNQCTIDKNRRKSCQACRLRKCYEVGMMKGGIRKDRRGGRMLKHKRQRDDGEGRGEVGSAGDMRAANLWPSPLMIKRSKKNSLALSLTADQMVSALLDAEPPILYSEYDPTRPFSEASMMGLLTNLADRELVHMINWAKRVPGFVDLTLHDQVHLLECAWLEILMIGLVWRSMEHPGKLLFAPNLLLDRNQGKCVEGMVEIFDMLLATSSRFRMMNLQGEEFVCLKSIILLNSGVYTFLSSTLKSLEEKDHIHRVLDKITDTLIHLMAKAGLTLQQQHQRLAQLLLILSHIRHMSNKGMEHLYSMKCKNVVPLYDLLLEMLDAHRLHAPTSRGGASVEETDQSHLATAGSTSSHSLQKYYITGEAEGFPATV
Procedure: The reduction in fluorescence was measured and the IC50 value (nM) was determined for various compounds of formula (I) in comparison to known antagonists.

Row | SMILES | pIC50
1 | CC1CCN(CCOc2ccc(C3c4ccc(O)cc4CC4(CC4)N3C(=O)c3ccccc3)cc2)C1 (mixture of isomers) [Compound 16] | 8.41
2 | CCN1CC(Oc2ccc(C3c4ccc(O)cc4CC4(CC4)N3C(=O)c3ccccc3)cc2)C1 (stereo not drawn) [Compound 1] | 6.45
3 | CCCN1CC(Oc2ccc(C3c4ccc(O)cc4CC4(CC4)N3C(=O)c3ccccc3)cc2)C1 (stereo not drawn) [Compound 2] | 6.89
4 | O=C(c1ccccc1)N1C(c2ccc(OCCN3CCCCCC3)cc2)c2ccc(O)cc2CC12CC2 (stereo not drawn) [Compound 5] | 7.31
5 | O=C(c1ccccc1)N1C(c2ccc(OCCN3CCCCC3)cc2)c2ccc(O)cc2CC12CC2 (stereo not drawn) [Compound 6] | 7.63
6 | CCN1CCC(Oc2ccc(C3c4ccc(O)cc4CC4(CC4)N3C(=O)c3ccccc3)cc2)C1 (stereo not drawn) [Compound 12] | 7.23
7 | CCN1CCC(CCOc2ccc(C3c4ccc(O)cc4CC4(CC4)N3C(=O)c3ccccc3)cc2)C1 (stereo not drawn) [Compound 13] | 7.68
8 | CCCN1CCC(COc2ccc(C3c4ccc(O)cc4CC4(CC4)N3C(=O)c3ccccc3)cc2)C1 (stereo not drawn) [Compound 14] | 7.72
9 | C[C@H]1CCN(CCOc2ccc(C3c4ccc(O)cc4CC4(CC4)N3C(=O)c3ccccc3)cc2)C1 (stereo partly drawn) [Compound 15] | 8.32
10 | CN(C)CCOc1ccc(C2c3ccc(O)cc3CC3(CC3)N2C(=O)c2ccccc2)cc1 (stereo not drawn) [Compound 19] | 6.13
11 | CNCCOc1ccc(C2c3ccc(O)cc3CC3(CC3)N2C(=O)c2ccccc2)cc1 (stereo not drawn) [Compound 20] | 6.30
12 | CCNCCOc1ccc(C2c3ccc(O)cc3CC3(CC3)N2C(=O)c2ccccc2)cc1 (stereo not drawn) [Compound 21] | 6.65
13 | CC1=C(c2ccc(O)cc2)[C@H](c2ccc(OCCN3CC[C@@H](C)C3)cc2)Oc2cc(O)ccc21 [OP1074, reference compound] | 9.77

tested on: halo-ERα; assay: ERα cellular stability, live-cell halo-ERα assay in T47D breast cancer cells; type: cell-based; settings: 0 to 10 μM, 24 hours
Procedure: T47D breast cancer cell lines were generated with stable Tet-ON wild type (WT), Y537S mutation, or D538G halo-ERα mutation and enriched through flow sorting. Cells were cultured for 48 hours in media supplemented with charcoal-stripped fetal bovine serum (FBS) in puromycin. Subsequently, 1 μg/mL doxycycline was added to induce expression and 1 μM G618 antibody was added to follow the expression of the halo-tagged proteins. Cells were then treated with increasing concentrations of a compound of interest between 0 and 10 μM for 24 hours. After treatment, cells were imaged using an INUCYTE™ S3 (Essen BioScience, Ann Arbor, MI). ERα degradation was quantified by using the red channel integrated intensity per image normalized to phase channel confluence area.
Tissue specific activities often correlate with a molecule's influence on ERα levels.

Row | SMILES | influence on ERα levels (SERM-like / SERD-like profile)
14 | CCN1CC(Oc2ccc(C3c4ccc(O)cc4CC4(CC4)N3C(=O)c3ccccc3)cc2)C1 (stereo not drawn) [Compound 1] | weak SERD-like profile

tested on: MCF7 breast cancer cells; assay: Crystal violet endpoint assay of MCF7 cellular viability; type: cell-based; settings: 500 nM, in the presence of 1 nM E2, 1 week
Text: A crystal violet endpoint assay is useful for obtaining quantitative information about the relative density of cells adhering to multi-well cluster dishes. The crystal violet dye stains DNA. Upon solubilization, the amount of dye taken up by the monolayer can be quantified in a spectrophotometer or plate reader when the absorbance of each well is read at 570 nm. A crystal violet assay kit to measure cell viability is commercially available (e.g., Abcam, Cambridge, MA). All antagonist treatments were performed in the presence of 1 nM hormone (E2) for 1 week.

Row | SMILES | induction of apoptosis (cellular viability)
15 | CCN1CCC(CCOc2ccc(C3c4ccc(O)cc4CC4(CC4)N3C(=O)c3ccccc3)cc2)C1 (stereo not drawn) [Compound 13] | appear to induce apoptosis
16 | CCCN1CCC(COc2ccc(C3c4ccc(O)cc4CC4(CC4)N3C(=O)c3ccccc3)cc2)C1 (stereo not drawn) [Compound 14] | appear to induce apoptosis

tested on: MCF7 breast cancer cells; assay: Cellular proliferation of MCF7 breast cancer cells, 150 hours; type: cell-based; settings: 1 nM E2 + 1 μM compound, serum-starved 48 hours
Procedure: The abilities of exemplary compounds of formula (I) to inhibit the cellular proliferation of MCF7 breast cancer cells were measured. Cells were serum-starved for 48 hours before they were treated with either vehicle (DMSO), 1 nM hormone (estradiol [E2]), or 1 nM E2+1 μM compound in triplicate for 150 hours.

Row | SMILES | anti-proliferative activities (fold-change in cell count versus starting cell count)
17 | CC1Cc2cc(O)ccc2C(c2ccc(OCC3CCN(CCCF)C3)cc2)N1C(=O)c1ccccc1 [35(R)] | modestly reduced the anti-proliferative activities compared compound 29
18 | CC1Cc2cc(O)ccc2C(c2ccc(OC[C@H]3CCN(CCCF)C3)cc2)N1C(=O)c1ccccc1 (stereo partly drawn) [35(S)] | modestly reduced the anti-proliferative activities compared compound 29
19 | CCCN1CC(COc2ccc(C3c4ccc(O)cc4CC4(CC4)N3C(=O)c3ccccc3)cc2)C1 (stereo not drawn) [Compound 4] | improved anti-proliferative activities compared to an ethylazetidine
20 | CCCCN1CCC(COc2ccc(C3c4ccc(O)cc4CC4(CC4)N3C(=O)c3ccccc3)cc2)C1 (stereo not drawn) [Compound 22] | did not enhance anti-proliferative activities compared to compound 14
21 | CCCCCN1CCC(COc2ccc(C3c4ccc(O)cc4CC4(CC4)N3C(=O)c3ccccc3)cc2)C1 (stereo not drawn) [Compound 23] | did not enhance anti-proliferative activities compared to compound 14
22 | CCCN1CCC(CCc2ccc(C3c4ccc(O)cc4CC4(CC4)N3C(=O)c3ccccc3)cc2)C1 (stereo not drawn) [Compound 24] | reduced anti-proliferative activities compared to compound 14
23 | O=C(c1ccccc1)N1C(c2ccc(CCC3CCN(CCCF)C3)cc2)c2ccc(O)cc2CC12CC2 (stereo not drawn) [Compound 25] | reduced anti-proliferative activities compared to compound 14
24 | CCCN1CCC(CNc2ccc(C3c4ccc(O)cc4CC4(CC4)N3C(=O)c3ccccc3)cc2)C1 (stereo not drawn) [Compound 26] | reduced anti-proliferative activities compared to compound 14
25 | CCCN1CCC(CSc2ccc(C3c4ccc(O)cc4CC4(CC4)N3C(=O)c3ccccc3)cc2)C1 (stereo not drawn) [Compound 27] | did not show an appreciable difference in anti-proliferative activities compared to compound 14
26 | O=C(c1ccccc1)N1C(c2ccc(OCC3CCN(CCCF)C3)cc2)c2ccc(O)cc2CC12CC2 (stereo not drawn) [Compound 29] | enhanced anti-proliferative activities
27 | O=C(c1ccccc1)N1C(c2ccc(OCC3CCN(CCCF)C3)cc2)c2ccccc2CC12CC2 (stereo not drawn) [Compound 34] | ablated anti-proliferative activities
